# In ChEMBL document CHEMBL3885881, “DrugMatrix”:
# Species on record: Rattus norvegicus
# Assay: DrugMatrix - Regimen: Daily Repeat
# Format: toxicity, organism-based, Sprague-Dawley
# Set-up: regimen Daily Repeat, gender Male, age 6-8 weeks
# Conditions: in vivo, po, route oral GAVAGE, vehicle .5 % CMC; for ABSOLUTE BASOPHIL / ABSOLUTE EOSINOPHIL / ABSOLUTE LYMPHOCYTE / ABSOLUTE MONOCYTE / ABSOLUTE SEGMENTED NEUTROPHIL / BASOPHIL / EOSINOPHIL / ERYTHROCYTE COUNT / HEMATOCRIT / HEMOGLOBIN / LEUKOCYTE COUNT / LYMPHOCYTE / MEAN CORPUSCULAR HEMOGLOBIN / MEAN CORPUSCULAR HEMOGLOBIN CONCENTRATION / MEAN CORPUSCULAR VOLUME / MONOCYTE / NEUTROPHIL / NUCLEATED RED BLOOD CELLS / PLATELET COUNT: tissue Blood; for ALANINE AMINOTRANSFERASE / ALBUMIN / ALKALINE PHOSPHATASE / ASPARTATE AMINOTRANSFERASE / BLOOD UREA NITROGEN / CARBON DIOXIDE / CHLORIDE / CHOLESTEROL / CREATINE PHOSPHOKINASE / CREATININE / GLUCOSE / LACTATE DEHYDROGENASE / LIPASE / PHOSPHORUS / POTASSIUM / SODIUM / TOTAL BILIRUBIN / TOTAL PROTEIN / URIC ACID: tissue Plasma
# [1] = 100 mg/kg, 120 h, dose level Low, time 5 day
# [2] = 2000 mg/kg, 72 h, dose level High, time 3 day
# [3] = 2000 mg/kg, 120 h, dose level High, time 5 day
structure (smiles),measurement,setting,value
CN/C(=N/CCSCc1nc[nH]c1C)NC#N [CIMETIDINE],ABSOLUTE BASOPHIL,[1],0 CELLS/uL
same,ABSOLUTE EOSINOPHIL,[1],36.33 CELLS/uL
same,ABSOLUTE LYMPHOCYTE,[1],10440.33 CELLS/uL
same,ABSOLUTE MONOCYTE,[1],206 CELLS/uL
same,ABSOLUTE SEGMENTED NEUTROPHIL,[1],1017.33 CELLS/uL
same,BASOPHIL,[1],0%
same,EOSINOPHIL,[1],0.33%
same,ERYTHROCYTE COUNT,[1],5.58 x10E6/uL
same,HEMATOCRIT,[1],34.03%
same,HEMOGLOBIN,[1],13.43 G/DL
same,LEUKOCYTE COUNT,[1],11.7 x10E3/uL
same,LYMPHOCYTE,[1],89.33%
same,MEAN CORPUSCULAR HEMOGLOBIN,[1],24.07 pg
same,MEAN CORPUSCULAR HEMOGLOBIN CONCENTRATION,[1],39.47 G/DL
same,MEAN CORPUSCULAR VOLUME,[1],61 fL
same,MONOCYTE,[1],1.67%
same,NEUTROPHIL,[1],8.67%
same,NUCLEATED RED BLOOD CELLS,[1],0 /100WBC
same,PLATELET COUNT,[1],685.33 x10E3/uL
same,ALANINE AMINOTRANSFERASE,[1],61.33 u/L
same,ALBUMIN,[1],4.23 G/DL
same,ALKALINE PHOSPHATASE,[1],391.33 u/L
same,ASPARTATE AMINOTRANSFERASE,[1],101.67 u/L
same,BLOOD UREA NITROGEN,[1],15.33 mg/dL
same,CARBON DIOXIDE,[1],28 mmol/L
same,CHLORIDE,[1],101 MEQ/L
same,CHOLESTEROL,[1],69 mg/dL
same,CREATINE PHOSPHOKINASE,[1],711.67 u/L
same,CREATININE,[1],0.18 mg/dL
same,GLUCOSE,[1],163 mg/dL
same,LACTATE DEHYDROGENASE,[1],293 u/L
same,LIPASE,[1],10.33 u/L
same,PHOSPHORUS,[1],11.6 mg/dL
same,POTASSIUM,[1],6.16 MEQ/L
same,SODIUM,[1],141.5 MEQ/L
same,TOTAL BILIRUBIN,[1],0.2 mg/dL
same,TOTAL PROTEIN,[1],5.97 G/DL
same,URIC ACID,[1],1.67 mg/dL
same,ABSOLUTE BASOPHIL,[2],0 CELLS/uL
same,ABSOLUTE EOSINOPHIL,[2],50 CELLS/uL
same,ABSOLUTE LYMPHOCYTE,[2],13681 CELLS/uL
same,ABSOLUTE MONOCYTE,[2],50 CELLS/uL
same,ABSOLUTE SEGMENTED NEUTROPHIL,[2],2252.33 CELLS/uL
same,BASOPHIL,[2],0%
same,EOSINOPHIL,[2],0.33%
same,ERYTHROCYTE COUNT,[2],5.85 x10E6/uL
same,HEMATOCRIT,[2],36.93%
same,HEMOGLOBIN,[2],14.33 G/DL
same,LEUKOCYTE COUNT,[2],16.03 x10E3/uL
same,LYMPHOCYTE,[2],84.33%
same,MEAN CORPUSCULAR HEMOGLOBIN,[2],24.5 pg
same,MEAN CORPUSCULAR HEMOGLOBIN CONCENTRATION,[2],38.8 G/DL
same,MEAN CORPUSCULAR VOLUME,[2],63.17 fL
same,MONOCYTE,[2],0.33%
same,NEUTROPHIL,[2],15%
same,NUCLEATED RED BLOOD CELLS,[2],0.33 /100WBC
same,PLATELET COUNT,[2],1342.33 x10E3/uL
same,ALANINE AMINOTRANSFERASE,[2],56 u/L
same,ALBUMIN,[2],4.13 G/DL
same,ALKALINE PHOSPHATASE,[2],392.67 u/L
same,ASPARTATE AMINOTRANSFERASE,[2],83.33 u/L
same,BLOOD UREA NITROGEN,[2],18 mg/dL
same,CARBON DIOXIDE,[2],32.33 mmol/L
same,CHLORIDE,[2],98.33 MEQ/L
same,CHOLESTEROL,[2],86.67 mg/dL
same,CREATINE PHOSPHOKINASE,[2],295 u/L
same,CREATININE,[2],0.24 mg/dL
same,GLUCOSE,[2],145.67 mg/dL
same,LACTATE DEHYDROGENASE,[2],334.33 u/L
same,LIPASE,[2],17 u/L
same,PHOSPHORUS,[2],11.87 mg/dL
same,POTASSIUM,[2],7.13 MEQ/L
same,SODIUM,[2],141.97 MEQ/L
same,TOTAL BILIRUBIN,[2],0.17 mg/dL
same,TOTAL PROTEIN,[2],5.67 G/DL
same,URIC ACID,[2],1.5 mg/dL
same,ABSOLUTE BASOPHIL,[3],0 CELLS/uL
same,ABSOLUTE EOSINOPHIL,[3],104.67 CELLS/uL
same,ABSOLUTE LYMPHOCYTE,[3],19446 CELLS/uL
same,ABSOLUTE MONOCYTE,[3],531.33 CELLS/uL
same,ABSOLUTE SEGMENTED NEUTROPHIL,[3],1118 CELLS/uL
same,BASOPHIL,[3],0%
same,EOSINOPHIL,[3],0.67%
same,ERYTHROCYTE COUNT,[3],5.6 x10E6/uL
same,HEMATOCRIT,[3],34.37%
same,HEMOGLOBIN,[3],14 G/DL
same,LEUKOCYTE COUNT,[3],21.2 x10E3/uL
same,LYMPHOCYTE,[3],91.33%
same,MEAN CORPUSCULAR HEMOGLOBIN,[3],25.03 pg
same,MEAN CORPUSCULAR HEMOGLOBIN CONCENTRATION,[3],40.77 G/DL
same,MEAN CORPUSCULAR VOLUME,[3],61.33 fL
same,MONOCYTE,[3],2.33%
same,NEUTROPHIL,[3],5.67%
same,NUCLEATED RED BLOOD CELLS,[3],0 /100WBC
same,PLATELET COUNT,[3],1356.67 x10E3/uL
same,ALANINE AMINOTRANSFERASE,[3],58 u/L
same,ALBUMIN,[3],4.07 G/DL
same,ALKALINE PHOSPHATASE,[3],363 u/L
same,ASPARTATE AMINOTRANSFERASE,[3],88.33 u/L
same,BLOOD UREA NITROGEN,[3],19.33 mg/dL
same,CARBON DIOXIDE,[3],25 mmol/L
same,CHLORIDE,[3],100.33 MEQ/L
same,CHOLESTEROL,[3],60 mg/dL
same,CREATINE PHOSPHOKINASE,[3],520.33 u/L
same,CREATININE,[3],0.3 mg/dL
same,GLUCOSE,[3],225 mg/dL
same,LACTATE DEHYDROGENASE,[3],221.33 u/L
same,LIPASE,[3],8 u/L
same,PHOSPHORUS,[3],13.4 mg/dL
same,POTASSIUM,[3],5.31 MEQ/L
same,SODIUM,[3],143.57 MEQ/L
same,TOTAL BILIRUBIN,[3],0.2 mg/dL
same,TOTAL PROTEIN,[3],5.73 G/DL
same,URIC ACID,[3],1.9 mg/dL
